# From publication PMC6915728 (Nature Communications, 2019)
# Tested on: E. coli essential gene hypomorphic alleles
# Assay: Chemical-genetic screen of 279 essential gene hypomorphs on high-density agar plates (AMPs and antibiotics)
# Format: cell-based, Escherichia coli
# Details: folA hypomorphic allele, sub-inhibitory AMP (50% growth inhibition of wild type), 32 °C, 20 h
# Text: Chemical-genetic profiling based on gene depletion captures a different aspect of resistance determinants than gene overexpression. […] To investigate the intrinsic AMP resistome, we initiated a chemical-genetic screen with a set of 279 partially depleted essential genes (hypomorphic alleles; see Methods) of E. coli. […] Then, using a well-established high-density agar plate assay[19],[33], we determined their chemical-genetic interaction profiles across the hypomorphic alleles (Supplementary Data 5). […]
# Analogous to our E. coli synthetic genetic array approach, our chemical-genetics screening strategy involves robotic pinning of each Kan^R marked single essential gene hypomorph arrayed in 384 colony format on Luria Broth (LB) medium, in quadruplicate, onto the minimal medium containing AMPs under a selected concentration, in two replicates, generating eight replicates in total for each essential gene hypomorph. […] The normalized colony sizes from the AMP plate was subtracted from their corresponding colony screened without AMP to estimate the final hypomorphic-strain fitness score (sensitive or resistant), which is as an average of all eight replicate measurements recorded for each hypomorphic allele. A z-score distribution based p-value was calculated for all interactions and those with p ≤ 0.05 were deemed as significant interactions. […]
sequence,measurement,value
"RRRPRPPYLPRPRPPPFFPPRLPPRIPPGFPPRFPPRFP [PR39, PR-39, cathelicidin, source pig; cluster C4]",Effect of folA depletion on susceptibility,sensitivity
